For test [1], the target named is IL-17A(FLAG-Tagged): IL-17RA(His-Tagged) binding (Homo sapiens, UniProt Q16552, K93Q). In words: IL-17A(FLAG-tagged):IL-17RA(His-tagged) binding disruption Eu-HTRF assay, Protocol 2. As to conditions: FLAG-IL-17A 1 nM; average if tested more than once. The text has this: IL-17A(FLAG-Tagged): IL-17RA(His-Tagged) Binding Disruption Eu-HTRF Assay
An antibody directed against the FLAG tag of IL-17A (SEQ ID NO: 1) is labeled with the HTRF donor chromophore (Europium-cryptate). IL-17A is present as a dimer that is “locked into” this quaternary structure due to the formation of loop-spanning […] disulfide bridges. The construct of IL-17RA used in the assay excludes the […] portion of the receptor and is fused to a C-terminal 10×His tag (SEQ ID NO:2). An antibody directed against the His tag of the IL-17RA chimera is labeled with the HTRF acceptor chromophore (“D2”). The fluorescence-resonance energy transfer (FRET) depends on the vicinity of the donor chromophore to the acceptor, and interruption of the binding between the IL-17A and IL-17RA causes the reduction/loss of FRET. Therefore, this assay allows to evaluate the compound effect on the binding IL-17A and IL-17RA by monitoring the fluorescence intensity of donor vs acceptor. The assay was run using either Protocol 1 or Protocol 2 as described below.
Protocol 2. 40 nl of 2-fold serial diluted compound solution for total 22 dilution points is added into each well of a 1536-well, white, low-volume, non-binding plate (Greiner #782904), then 2 μl of FLAG tagged IL-17A at 2×final concentration (1 nM) in solution of PBS+0.01% Triton-X100 is added to each well. The assay plate is briefly centrifuged then incubated for 1 h at rt. A mixed solution is prepared containing 2×5 nM 10HIS×IL-17RA, 2×2.5 nM Eu-anti-FLAG (CISBIO), 2×5 nM D2-anti-HIS (CISBIO) in PBS+0.01% Triton-X100+200 mM Potassium Fluoride (Sigma 60238) and 2 μl of mix is added to each well of the assay plate. The plate is briefly centrifuged then incubated for 2 h at rt. The HTRF intensities at the wavelength of donor (615 nm) and acceptor (665 nm) are measured using BMG Pherastar. The ratio between intensities at two wavelengths is calculated and plotted against the compound concentration and the data is fitted to a one-site competition model to yield IC50 of the compound.

For test [2], the system named is IL-17A-induced G-CSF production in human normal keratinocyte (NHK). In words: NHK assay: IL-17A-induced G-CSF production in normal human keratinocytes. In kind it is cell-based. As to conditions: Homo sapiens, Keratinocyte, 24 h, IL-17A 5 ng/mL, G-CSF by HTRF, average if tested more than once. The method, then: IL-17A acts directly on keratinocytes through binding to dimeric receptor IL-17RA/RC and drives the production of a number of inflammatory mediators known to be elevated in psoriasis lesional tissue. IL-17A small molecule inhibitors that block the IL-17A to interact with IL-17R would inhibit the IL-17A signaling in its targeted cells such as keratinocytes. The compound functional activity is evaluated for its impact on IL-17A-induced G-CSF production in human normal keratinocyte (NHK).
Adult normal human keratinocytes are cultured in keratinocyte growth medium (Lonza) in a flask till reaching ˜90% confluence, then cells are transferred to a 384-well plate at density of 3000-4000 cell/well. Recombinant human IL-17A (Gibco PHC9174) is pre-incubated with titrated compound or DMSO for 1 h at rt then added to the cell culture plate. The final concentration of IL-17A is 5 ng/mL and DMSO is 0.2%, in the culture containing 5% FBS. Cells are cultured/treated for 24 h at 37° C. Supernatants are collected and G-CSF production is measured through HTRF technology using Human G-CSF Kit (CisBio). G-CSF concentration was extrapolated from the standard curve and IC50 is determined using GraphPad Prism. Cell viability is also evaluated using CellTiter-Glo kit (Promega) and effect of compound on cell viability is compared to DMSO control.

Here are results for seven molecules from patent publication US12173007B2, “Imidazopyridazine IL-17 inhibitor compounds” (Janssen Pharmaceutica NV, priority 2021, dated 2024).

Chain of UniProt Q16552 (Q16552 with tags, fused parts or gaps K93Q): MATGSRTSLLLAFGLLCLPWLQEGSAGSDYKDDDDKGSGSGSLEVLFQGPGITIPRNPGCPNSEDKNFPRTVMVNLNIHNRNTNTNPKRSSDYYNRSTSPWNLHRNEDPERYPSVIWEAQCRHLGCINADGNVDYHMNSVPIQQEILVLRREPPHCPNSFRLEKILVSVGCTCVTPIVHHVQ

`Cc1nonc1C(=O)N[C@H](c1cn2ncc(C(C3CCOCC3)N3CC(F)(F)CNC3=O)cc2n1)C1CCC(F)(F)CC1` (single isomer, unassigned) [Example 59, N—((S)-(7-((R*)-(5,5-Difluoro-2-oxotetrahydropyrimidin-1(2H)-yl)(tetrahydro-2H-pyran-4-yl)methyl)imidazo[1,2-b]pyridazin-2-yl)(4,4-difluorocyclohexyl)methyl)-4-methyl-1,2,5-oxadiazole-3-carboxamide]: the IC50 in test [1] and in test [2] was under 0.05 µM in each case.
As to `[2H]C1([2H])NC(=O)N([C@H](COC2CC2)c2cnn3cc([C@@H](NC(=O)c4nonc4C(F)F)C4CCC(F)(F)CC4)nc3c2)C([2H])([2H])C1(F)F` [Example 82, N—((S)-(7-((S)-2-Cyclopropoxy-1-(5,5-difluoro-2-oxotetrahydropyrimidin-1(2H)-yl-4,4,6,6-d4)ethyl)imidazo[1,2-b]pyridazin-2-yl)(4,4-difluorocyclohexyl)methyl)-4-(difluoromethyl)-1,2,5-oxadiazole-3-carboxamide], the IC50 in test [1] and in test [2] was under 0.05 µM throughout.
As for `Cc1nonc1C(=O)N[C@@H](CCC(C)(C)C(F)(F)F)c1cn2ncc(CN3CC(F)(F)CNC3=O)cc2n1` [Example 115, (S)—N-(1-(7-((5,5-Difluoro-2-oxotetrahydropyrimidin-1(2H)-yl)methyl)imidazo[1,2-b]pyridazin-2-yl)-5,5,5-trifluoro-4,4-dimethylpentyl)-4-methyl-1,2,5-oxadiazole-3-carboxamide], the IC50 (as a rule, the concentration needed to halve the response being measured) in test [1] is under 0.05 µM; in test [2], 0.05 to 0.1 µM.
In the case of `COc1nonc1C(=O)N[C@H](c1cn2ncc([C@@H](COC3CC3)N3CC(F)(F)CNC3=O)cc2n1)C1CCC(F)(F)CC1` [Example 77, N—((S)-(7-((S)-2-Cyclopropoxy-1-(5,5-difluoro-2-oxotetrahydropyrimidin-1(2H)-yl)ethyl)imidazo[1,2-b]pyridazin-2-yl)(4,4-difluorocyclohexyl)methyl)-4-methoxy-1,2,5-oxadiazole-3-carboxamide], the IC50 in test [1] and in test [2] was under 0.05 µM throughout.
`[2H]C1([2H])NC(=O)N([C@H](COC2CC2)c2cnn3cc([C@@H](NC(=O)c4nonc4OC)C4CCC(F)(F)CC4)nc3c2)C([2H])([2H])C1(F)F` [Example 69, N—((S)-(7-((S)-2-Cyclopropoxy-1-(5,5-difluoro-2-oxotetrahydropyrimidin-1(2H)-yl-4,4,6,6-d4)ethyl)imidazo[1,2-b]pyridazin-2-yl)(4,4-difluorocyclohexyl)methyl)-4-methoxy-1,2,5-oxadiazole-3-carboxamide]: the IC50 in test [1] and in test [2] was under 0.05 µM in each case.
For `COC[C@H](c1cnn2cc([C@H](CCC(C)(C)C(C)(F)F)NC(=O)c3nonc3C)nc2c1)N1CC(F)(F)CNC1=O` (relative stereo) [Example 133, N—((S*)-1-(7-((S)-1-(5,5-Difluoro-2-oxotetrahydropyrimidin-1(2H)-yl)-2-methoxyethyl)imidazo[1,2-b]pyridazin-2-yl)-5,5-difluoro-4,4-dimethylhexyl)-4-methyl-1,2,5-oxadiazole-3-carboxamide], the IC50 in test [1] and in test [2] was under 0.05 µM throughout.
Turning to `[2H]C1([2H])NC(=O)N([C@H](COC2CC2)c2cnn3cc([C@@H](NC(=O)c4nocc4CC(F)(F)F)C4CCC(F)(F)CC4)nc3c2)C([2H])([2H])C1(F)F` [Example 107, N—((S)-(7-((S)-2-Cyclopropoxy-1-(5,5-difluoro-2-oxotetrahydropyrimidin-1(2H)-yl-4,4,6,6-d4)ethyl)imidazo[1,2-b]pyridazin-2-yl)(4,4-difluorocyclohexyl)methyl)-4-(2,2,2-trifluoroethyl)isoxazole-3-carboxamide], the IC50 in test [1] and in test [2] was under 0.05 µM throughout.
